Data published in patent US20230405071A1, “COMPOSITIONS AND METHODS USEFUL FOR MANAGEMENT OF BLOOD SUGAR” (SOLVEAT FUNCTIONAL NUTRITION SOLUTIONS LTD., priority 2020, published 2023).

What was measured:
[1] = human, in vivo
Procedure: Patient 1: a person, suffering from diabetic leg complications and a non-healing wound on the minimus, indicated for amputation. The patient was treated with the composition as in the example 5, TI.1-8HC, 3 grams per day, for 20 days. The treatment was supported with suitable acupuncture protocol, and topical antibiotic preparations.
Patient 2: a person, suffering from diabetes, a completer of the clinical trial similar to the described in the Example 3, proceeded with the open-label extension for further 3 months and achieved a 24% reduction in the fasting glucose levels. Thereafter the dose was increased to 1500 mg twice daily, and after one month a complete control over fasting glucose level has been achieved (below 140 mg/dL). Low-carbohydrate diets was prescribed to maintain the achievement. The patient presented a year after with fasting blood glucose of over 160; requested and was prescribed raw fan shi liu ye 10000 mg per day (as decoction—10 minutes boiling, chilling, and consumption). After 10 days the fasting blood glucose declined to between 120 and 130 mg/dL, but the patient suffered from fatigue and reverted to the experimental chocolate.
Patient 3: a person, presented during COVID-19 pandemics with fasting blood glucose of 150 mg/dL, HA1C of 7.4, with anxiety and uncontrolled eating. […]

L6 myotubes = assay: Glucose uptake colorimetric assay (2-deoxy glucose) in differentiated L6 cells; assay type: cell-based; conditions: insulin challenge versus serum-free control (FIG. 2)
Procedure: The objective of the study was to evaluate the anti-diabetic action of herbal blends. The ability to enhance glucose consumption by skeletal muscle was evaluated in L6 myotubes model in comparison to various control groups, including two known traditional reference formulae.
Cell culturing, materials preparations and all treatments were performed under sterile conditions. The L6 Cells culture medium comprised A-MEM supplemented with 100 U/ml penicillin and 100 μg/ml streptomycin and 10% FBS, sterilely filtered. The L6 cells differentiation medium comprised α-MEM supplemented with 100 U/ml penicillin and 100 μg/ml streptomycin and 2% FBS, sterilely filtered. […]
Glucose uptake assay was performed using Glucose Uptake Colorimetric Assay Kit in the non-radioactive 2-deoxy glucose derivative, according to the manufacturers' instructions in KRBH buffer, on differentiated cells. Colorimetric data was quantified by the use of a standard curve. Glucose uptake in the control (naïve cells), vehicle (DDW), and insulin-treated cells was measured.
Glucose uptake assay was then performed for the two concentrations of tested items: at 50 μg/mL and at 5 μg/mL. […] It can be readily appreciated from the FIG. 3 that the composition of eight ingredients composition was equipotent to QWS and BHT (denoted as “c1” and c2”) at the concentration of 50 μg/mL. […]

Substance: Psidium guajava L. [fan shi liu ye]
- tolerability of treatment over extended time [1]: could not be well tolerated

Substance: insulin
- glucose uptake by muscle cells (L6 myotubes): significantly increased
